One may read the AUC(0-inf) as the area under the concentration-time curve extrapolated to infinity. As a reminder, the Cmax is the peak of the concentration-time curve. The term Tmax denotes the time from dosing to the highest level.

Like-named read-outs stand apart in the source and are kept apart here.

Series [1] is described as follows: Pharmacokinetics of GT467 and GT511 in rats, plasma and brain (IV, IP, PO). The class given is in vivo, rat. Particulars: for AUC0-t: 0 to 24 hrs. On the procedure:
Pharmacokinetics (PK) study for GT951 was conducted at Melior Discovery Services (Exton, PA). Fifteen male CD-1 mice 23-50 g was used for the study and the mice were housed 3 per cage. PK studies for GT467 and GT511 were conducted at Piramal Pharma solutions under approved protocols (Pune, India). One hundred and sixty-eight male Wistar rats were used for the study and housed 4 per cage. All animals were maintained on a standard 12 h light cycle and given free access to water and standard rodent chow. Food and water were available ad libitum. Animals were not fasted for any portion of the study and animals were acclimated to the animal care facility for seven days prior to the start of the experiment. The holding room and procedure room temperature was 21-23° C. and humidity was at 40-45% during the experiment (within the normal range of the care facility). All procedures were completed according to Institutional Animal Care and Use Committee (IACUC) approved protocols for housing and for PK studies.
Rats were dosed with the drug and blood and brain samples were collected at 0.5, 1, 2, 4, 8 and 24 h time points. Blood was collected via the sub-lingual vein under anesthesia into tubes containing Na2EDTA as an anticoagulant. Plasma fraction was separated by centrifuging the samples at 10,000 rpm for 5 min and the plasma was transferred to a cryo tube and stored at −80 C. Animals were euthanized and the brain was rapidly removed on ice and weighed. Brain was homogenized in Milli Q water and the homogenate was stored at −80 C until further use. Bioanalysis of the samples was performed using the SCIEX QTRAP 5500 LCMS/MS system with Phenomenex synergy C18 column and carbamazepine as internal standard. A methanol extraction procedure was used to precipitate the proteins in the sample. In addition to the internal standards, drug free plasma and brain samples were prepared for calibration and quantification standards. All samples were within the detectable range of the standard curves. 50 μl of the sample was added to 200 μl of the working solution of the internal standard and centrifuged for 5 min at 10,000 rpm. 60 μl of the supernatant was added to 140 μl of water and mixed well prior to transferring them for quantitative analysis on LCMS.
Specifically, rats were administered with GT467 or GT511 intraperitoneally (IP), intravenously (IV) or orally (PO). The concentration of the administered compounds measured at various timepoints in the plasma are depicted in FIGS. 4A and 4B, the concentrations of the administered compounds measured at various timepoints in the brain are depicted in FIGS. 5A and 5B.
Furthermore, pharmacokinetic parameters such as the peak concentration (Cmax), the time to reach the peak concentration (Tmax), the area under curve from time 0 to T (i.e., 24 hrs) (AUC0-t), the area under curve from time 0 to infinite (AUC0-∞), the half-life (t1/2), the oral clearance (CL/F), the volume of distribution of drug observed (Vz_F_obs), and the percentage of bioavailability (% Bioavailability) were also measured or calculated.

Series [2] concerns Drosophila model of Huntington's Disease (Htt model). In words: Larval locomotion assay in Drosophila Huntington's disease model. Type of series: in vivo. Particulars: third instar larvae; concentrations as low as two-fold below EC50 and one-fold below EC50. From the text: FIG. 6A illustrate certain aspects of a locomotion assay used to assay the locomotive activities. […] FIGS. 6B and 6C depict the results of the locomotion assay results of wild-type Drosophila (“WT”), as well as Drosophila of a Huntington's disease model treated with vehicle (“Veh”) or with various concentrations of two exemplary GLT-1 modulators. […] The Drosophila Htt model is produced by crossing UAS-Htt([…]) male flies with elav-Gal4 virgin female flies. Both fly strains were purchased from Bloomington Drosophila Stock Center (BDSC, Indiana, USA). […] Locomotion assays were conducted by transferring the third instar larvae of flies to agar plates (FIG. 6A) and counting the number of grid lines crossed in 30 seconds.

The subject of series [3] is Drosophila model of Huntington's disease. In words: Larval olfactory associative learning test. The class given is in vivo. Particulars: Elav x Htt larvae; 3.53 nM GT467, […] GT511. On the procedure:
FIG. 7A illustrates certain aspects of a larval olfactory associative learning used to test learning and memory. In FIG. 7A, larvae were trained with either a reinforcer solution containing sucrose (“LIN/SUC”) or a control of distilled water (“LIN/DW”). The trained larvae were then transferred to a dish having test odorant placed on one side and a control on the opposite side. […] The ΔRI (difference between LIN/SUC and LIN/DW performance scores) were then calculated for the high performers (FIG. 7B), low performers (FIG. 7C) and non-performers (FIG. 7D). […] Referring to FIG. 7A, Drosophila larvae were trained with either a reinforcer solution containing sucrose (“LIN/SUC”) or a control of distilled water (“LIN/DW”). The trained larvae were then transferred to a dish having test odorant placed on one side and a control on the opposite side. The ΔRI were then calculated for the high performers (FIG. 7B), low performers (FIG. 7C) and non-performers (FIG. 7D).

For series [4] the test system is unchanged. Description: Longevity assay. The class given is in vivo. Particulars: Huntington's disease model flies; up to about day 40. On the procedure: The longevity assay was performed according to Romero et al., Neuron, 57(1), 27-40 and Linford et al., JoVE (Journal of Visualized Experiments), (71). Briefly, 100 adult flies from wild type and HTT phenotype (male and female) were collected in each designated tube and fed with food containing the specific concentration of drug. Every 2-3 days the flies were moved into new vials with fresh food and drug. Dead flies were removed and the number of flies alive during each change is noted. The tunes were maintained until the last available fly and the data was plotted as a survival curve. FIG. 8A illustrates certain aspects of a longevity assay. FIG. 8B depicts the results of the longevity assay. […] The survival rates of the flies were recorded over time.

Series [5] relates to R6/2 mice (Huntington disease model). In words: Open field locomotion test. The class given is in vivo, mouse. Particulars: 200 mg/kg, versus wild-type treated with vehicle. On the procedure:
FIG. 9A depicts the results of a locomotion test. In the locomotion test of FIG. 9A, wildtype and R6/2 mice treated with vehicle or different doses of GTS467 (2, 4, and 10 mg/kg) or ceftriaxone (200 mg/kg) were subjected to the open field test to evaluate their locomotor abilities in a 44×44 cm and 43×43 cm square open field arena. Animals were placed individually in the open field arena and behavior was recorded for a period of 5 minutes under dim light and low noise conditions. Animal behavior was recorded using an overhead camera and the distance moved was recorded and quantified using the Noldus ethovision XT-14 software. FIG. 9B depicts the results of a memory task test. Referring to FIG. 9B, to test for memory impairment a novel object recognition assay was performed. A 44×44 cm square shaped open field arena was used to perform this test at week 12 and week 15. The behavioral evaluation was performed in 2 sets, each set having equal number of animals. […] The behavior was recorded under dim light and low noise conditions using an overhead camera. Cumulative duration with both the objects, total object exploration (sec), distance travelled (cm) was quantified using the Noldus ethovision XT 14 software. […]

For series [6] the test system is unchanged. In words: Novel object recognition assay. The class given is in vivo, mouse. Particulars: 200 mg/kg, versus wild-type treated with vehicle.
Description: Referring to FIG. 9B, to test for memory impairment a novel object recognition assay was performed. A 44×44 cm square shaped open field arena was used to perform this test at week 12 and week 15. The behavioral evaluation was performed in 2 sets, each set having equal number of animals. The animals were subjected to habituation a day prior to the commencement of test for 5 min followed by familiarization with similar objects for 10 min and tested with different objects for 10 min on the following day. The behavior was recorded under dim light and low noise conditions using an overhead camera. Cumulative duration with both the objects, total object exploration (sec), distance travelled (cm) was quantified using the Noldus ethovision XT 14 software.
The mark [7] stands for this setting: male, Wistar, rat plasma, IP 10 mg/kg.
Setting [8] is: male, Wistar, rat plasma, IV 5 mg/kg.
[9] abbreviates: male, Wistar, rat plasma, PO 10 mg/kg.

In the case of `COc1ccc(NC(=O)C(=O)N2CCN(c3ccccc3)CC2)cc1` [GT511, N-(4-methoxyphenyl)-2-oxo-2-(4-phenylpiperazin-1-yl)acetamide], the AUC(0-inf) in series [1] (setting [7]) was 1130 ng·h/mL; in series [1] (setting [8]), 995 ng·h/mL; in series [1] (setting [9]) it was 399 ng·h/mL. For the same molecule, the values for the Cmax in series [1] (setting [7]), in series [1] (setting [8]) and in series [1] (setting [9]) were 450 ng/mL, 567 ng/mL and 42.9 ng/mL, respectively. Also, the AUC0-t in series [1] (male, Wistar, rat plasma, IP 10 mg/kg, read-out: AUC0-t) turned out to be 1070 ng·h/mL; in series [1] (male, Wistar, rat plasma, IV 5 mg/kg, read-out: AUC0-t), 919 ng·h/mL; in series [1] (male, Wistar, rat plasma, PO 10 mg/kg, read-out: AUC0-t) it was 322 ng·h/mL; in series [1] (rat brain, IP 10 mg/kg), 429.85 ng·h/g; in series [1] (rat brain, IV 5 mg/kg) it was 443.23 ng·h/g; in series [1] (rat brain, PO 10 mg/kg), 183.00 ng·h/g. In addition, the CL/F in series [1] (male, Wistar, rat plasma, IP 10 mg/kg, read-out: CL/F (converted)) was 149 mL/min/kg; in series [1] (male, Wistar, rat plasma, PO 10 mg/kg, read-out: CL/F (converted)), 505 mL/min/kg; in series [1] (rat plasma, IV 5 mg/kg), 86.3097 mL/min/kg. Also, the “AUC0-∞” value in series [1] (rat brain, IP 10 mg/kg) stood at 467.11 ng·h/g; in series [1] (rat brain, IV 5 mg/kg), 483.13 ng·h/g. Besides, the Tmax in series [1] (rat brain, IP 10 mg/kg) turned out to be 30 min; in series [1] (rat brain, IV 5 mg/kg), 30 min; in series [1] (rat brain, PO 10 mg/kg), 82.8 min; in series [1] (rat plasma, IP 10 mg/kg), 37.8 min; in series [1] (rat plasma, IV 5 mg/kg) it was 30 min; in series [1] (rat plasma, PO 10 mg/kg), 195 min. Moreover, the t1/2 amounted to 2.26 h in series [1] (rat brain, IP 10 mg/kg); 1.52 h in series [1] (rat brain, IV 5 mg/kg); 6.22 h in series [1] (rat plasma, IP 10 mg/kg); 6.08 h in series [1] (rat plasma, IV 5 mg/kg); 5.34 h in series [1] (rat plasma, PO 10 mg/kg). Moreover, the “% Bioavailability” value in series [1] (rat plasma, IP 10 mg/kg) is 58.36%; in series [1] (rat plasma, PO 10 mg/kg), 17.51%. Moreover, the Vz_F_obs in series [1] (rat plasma, IP 10 mg/kg) amounted to 79221.20 mL/kg; in series [1] (rat plasma, IV 5 mg/kg), 41463.89 mL/kg; in series [1] (rat plasma, PO 10 mg/kg), 198882.89 mL/kg. The “Plasma concentration and brain concentration by route of administration” value in series [1] (rats, IP, IV, PO) is “higher plasma concentration and brain concentration than oral administration”. For the same molecule, the “Locomotor ability (grid lines crossed in 30 seconds)” value in series [2] is given as “restores the Huntington's disease model flies' locomotor ability”. Moreover, the “Olfactory learning performance (ΔRI)” value in series [3] is “improved significantly”. Further, the Survival rate result in series [4] is reported as “significantly improved the survival rate”.
`CO/N=C(\C(=O)N[C@@H]1C(=O)N2C(C(=O)O)=C(CSc3nc(=O)c(=O)[nH]n3C)CS[C@H]12)c1csc(N)n1` [ceftriaxone, (6R,7R)-7-{[(2Z)-2-(2-amino-1,3-thiazol-4-yl)->2-(methoxyimino)acetyl]amino}-3-{[(2-methyl-5,6-dioxo-1,2,5,6-tetrahydro-1,2,4-triazin-3-yl)thio]methyl}-8-oxo-5-thia-1-azabicyclo[4.2.0]oct-2-ene-2-carboxylic acid, reference compound]: the Distance moved entry in series [5] is listed as “move significantly shorter distances”. The Recognition index result in series [6] is on record as “scored significantly lower in recognition index”.

For the origin of these results see patent US20250092001A1, “NOVEL EXCITATORY AMINO ACID GLUTAMATE TRANSPORT MODULATORS AND METHODS USING THE SAME” (Drexel University, priority 2022, published 2025).
